From US20100292214A1, “Compounds with Antiparasitic Activity, Applications thereof to the Treatment of Infectious Diseases Caused by Apicomplexans” (commissariat a l'Energie Atomique, priority 2007, published 2010)
Where a name gives a salt, the structure may show the parent alone.

test system: asynchronous 3D7 chloroquine-sensitive P. falciparum infected red blood cells; assay: Labeled hypoxanthine incorporation assay (in vitro anti-malarial activity); format: cell-based; settings: 3D7 chloroquine-sensitive strain, infected RBC, 48 h contact, [3H]-hypoxanthine incorporation; two independent experiments in duplicates; read-out: IC50 assessed on Plasmodium Falciparum

For `C[C@@H](COC(=O)N1CCC(n2c(=O)[nH]c3ccccc32)CC1)N(Cc1ccccc1)Cc1ccc(Br)cc1` [Compound 116, S)-2-(benzyl(4-bromobenzyl)amino)propyl 4-(2-oxo-2,3-dihydro-1H-benzo[d]imidazol-1-yl)piperidine-1-carboxylate hydrochloride], the IC50 was 2880 nM.

same assay, conditions: Plasmodium falciparum, 3D7, Erythrocyte, 3D7 chloroquine-sensitive strain, infected RBC, 48 h contact, [3H]-hypoxanthine incorporation; two independent experiments in duplicates; read-out: IC50 assessed on Plasmodium Falciparum

In order of falling IC50:
1. O=C(OCCN(Cc1ccccc1)Cc1c(F)cccc1F)N1CCC(n2c(=O)[nH]c3ccccc32)CC1 [Compound 101, 2-(benzyl(2,6-difluorobenzyl)amino)ethyl 4-(2-oxo-2,3-dihydro-1H-benzo[d]imidazol-1-yl)piperidine-1-carboxylate]  5370 nM
2. O=C(OCCN(C/C=C/c1ccccc1)Cc1ccccc1)N1CCC(n2c(=O)[nH]c3ccccc32)CC1 [Compound 104, (E)-2-(benzyl(cinnamyl)amino)ethyl 4-(2-oxo-2,3-dihydro-1H-benzo[d]imidazol-1-yl)piperidine-1-carboxylate]  4970 nM
3. COc1ccccc1CN(CCOC(=O)N1CCC(n2c(=O)[nH]c3ccccc32)CC1)Cc1ccccc1 [Compound 151, 2-(benzyl(2-methoxybenzyl)amino)ethyl 4-(2-oxo-2,3-dihydro-1H-benzo[d]imidazol-1-yl)piperidine-1-carboxylate]  4660 nM
4. O=C(OCCCN(CCCc1ccccc1)Cc1ccccc1)N1CCC(n2c(=O)[nH]c3ccccc32)CC1 [Compound 148, 3-(benzyl(3-phenylpropyl)amino)propyl 4-(2-oxo-2,3-dihydro-1H-benzo[d]imidazol-1-yl)piperidine-1-carboxylate hydrochloride]  4610 nM
5. C[C@@H](COC(=O)N1CCC(N(c2ccccc2)S(=O)(=O)c2ccc3ccccc3c2)CC1)N(Cc1ccccc1)Cc1ccccc1 [Compound 171, (S)-2-(dibenzylamino)propyl 4-(N-phenyl-naphthalen-2-ylsulfonamido)piperidine-1-carboxylate]  4430 nM
6. C[C@@H](COC(=O)N1CCC(N(C)c2ccccc2)CC1)N(Cc1ccccc1)Cc1ccccc1 [Compound 166, (S)-2-(dibenzylamino)propyl 4-(N-methyl-N-phenylamino)piperidine-1-carboxylate]  3690 nM
7. C[C@@H](COC(=O)N1CCC(n2c(=O)[nH]c3ccccc32)CC1)N(Cc1ccccc1)Cc1ccc(Cl)cc1 [Compound 129, (S)-2-(benzyl(4-chlorobenzyl)amino)propyl 4-(2-oxo-2,3-dihydro-1H-benzo[d]imidazol-1-yl)piperidine-1-carboxylate hydrochloride]  3630 nM
8. O=C(OCCN(Cc1ccccc1)Cc1cccc(OCc2ccccc2)c1)N1CCC(n2c(=O)[nH]c3ccccc32)CC1 [Compound 103, 2-(benzyl(3-(benzyloxy)benzyl)amino)ethyl 4-(2-oxo-2,3-dihydro-1H-benzo[d]imidazol-1-yl)piperidine-1-carboxylate]  3570 nM
9. O=C(OCCN(Cc1ccccc1)Cc1cccc(Cl)c1)N1CCC(n2c(=O)[nH]c3ccccc32)CC1 [Compound 124, 2-(benzyl(3-chlorobenzyl)amino)ethyl 4-(2-oxo-2,3-dihydro-1H-benzo[d]imidazol-1-yl)piperidine-1-carboxylate hydrochloride]  3310 nM
10. O=C(OCCN(Cc1ccccc1)Cc1ccc(OCc2ccccc2)cc1)N1CCC(n2c(=O)[nH]c3ccccc32)CC1 [Compound 100, 2-(benzyl(4-(benzyloxy)benzyl)amino)ethyl 4-(2-oxo-2,3-dihydro-1H-benzo[d]imidazol-1-yl)piperidine-1-carboxylate]  3150 nM
11. CSc1ccccc1NC1CCN(C(=O)OC[C@H](Cc2ccccc2)N(Cc2ccccc2)Cc2ccccc2)CC1 [Compound 176, (S)-2-(dibenzylamino)-3-phenylpropyl 4-(2-(methylthio)phenylamino)piperidine-1-carboxylate]  2650 nM
12. CCc1cccc(CC)c1NC1CCN(C(=O)OC[C@H](Cc2ccccc2)N(Cc2ccccc2)Cc2ccccc2)CC1 [Compound 175, (S)-2-(dibenzylamino)-3-phenylpropyl 4-(2,6-diethylphenylamino)piperidine-1-carboxylate]  2600 nM
13. C[C@@H](COC(=O)N1CCC(Nc2ccccc2Sc2ccc(Cl)cc2)CC1)N(Cc1ccccc1)Cc1ccccc1 [Compound 173, (S)-2-(dibenzylamino)propyl 4-(2-(4-chlorophenylthio)phenylamino)piperidine-1-carboxylate]  2580 nM
14. C[C@@H](COC(=O)N1CCC(n2c(=O)[nH]c3ccccc32)CC1)N(Cc1ccccc1)Cc1ccc([N+](=O)[O-])cc1 [Compound 113, (S)-2-(benzyl(4-nitrobenzyl)amino)propyl 4-(2-oxo-2,3-dihydro-1H-benzo[d]imidazol-1-yl)piperidine-1-carboxylate]  2450 nM
15. CC(C)(C)C(COC(=O)N1CCC(n2c(=O)[nH]c3ccccc32)CC1)N(Cc1ccccc1)Cc1ccccc1 (stereo not drawn) [Compound 109, 2-(dibenzylamino)-3,3-dimethylbutyl 4-(1,2-dihydro-2-oxobenzo[d]imidazol-3-yl)piperidine-1-carboxylate]  2400 nM
16. CC(C)(COC(=O)N1CCC(n2c(=O)[nH]c3ccccc32)CC1)N(Cc1ccccc1)Cc1ccccc1 [Compound 111, 2-(dibenzylamino)-2-methylpropyl 4-(1,2-dihydro-2-oxobenzo[d]imidazol-3-yl)piperidine-1-carboxylate]  2280 nM
17. O=C(OCCCN(Cc1ccccc1)Cc1ccc(F)cc1)N1CCC(n2c(=O)[nH]c3ccccc32)CC1 [Compound 147, 3-(benzyl(4-fluorobenzyl)amino)propyl 4-(2-oxo-2,3-dihydro-1H-benzo[d]imidazol-1-yl)piperidine-1-carboxylate hydrochloride]  2220 nM
18. C[C@@H](COC(=O)N1CCC(N(c2ccccc2)S(=O)(=O)c2ccc(-c3ccccc3)cc2)CC1)N(Cc1ccccc1)Cc1ccccc1 [Compound 170, (S)-2-(dibenzylamino)propyl 4-(N-phenyl-biphenyl-4-sulfonamido)piperidine-1-carboxylate]  2200 nM
19. COc1ccc(CN(CCCOC(=O)N2CCC(n3c(=O)[nH]c4ccccc43)CC2)Cc2ccccc2)cc1 [Compound 117, 3-(benzyl(4-methoxybenzyl)amino)propyl 4-(2-oxo-2,3-dihydro-1H-benzo[d]imidazol-1-yl)piperidine-1-carboxylate hydrochloride]  1870 nM
20. CCCc1ccc(S(=O)(=O)N(c2ccccc2)C2CCN(C(=O)OC[C@H](C)N(Cc3ccccc3)Cc3ccccc3)CC2)cc1 [Compound 154, (S)-2-(dibenzylamino)propyl 4-(N-phenyl-4-propylphenylsulfonamido)piperidine-1-carboxylate]  1590 nM
21. O=C(OC[C@H](Cc1ccccc1)N(Cc1ccccc1)Cc1ccccc1)N1CCC(N(c2ccccc2)S(=O)(=O)c2cccc3ccccc23)CC1 [Compound 162, (S)-2-(dibenzylamino)-3-phenylpropyl 4-(N-phenyl-naphthalen-1-ylsulfonamido)piperidine-1-carboxylate]  1330 nM
22. O=C(OCCCN(Cc1ccccc1)Cc1cccnc1)N1CCC(n2c(=O)[nH]c3ccccc32)CC1 [Compound 134, 3-(benzyl(pyridin-3-ylmethyl)amino)propyl 4-(2-oxo-2,3-dihydro-1H-benzo[d]imidazol-1-yl)piperidine-1-carboxylate hydrochloride]  1290 nM
23. C[C@@H](COC(=O)N1CCC(Nc2ccccc2S(=O)(=O)c2ccccc2)CC1)N(Cc1ccccc1)Cc1ccccc1 [Compound 164, (S)-2-(dibenzylamino)propyl 4-(2-(phenylsulfonyl)phenylamino)piperidine-1-carboxylate]  1260 nM
24. Cc1cccc(C)c1NC1CCN(C(=O)OC[C@H](Cc2ccccc2)N(Cc2ccccc2)Cc2ccccc2)CC1 [Compound 174, (S)-2-(dibenzylamino)-3-phenylpropyl 4-(2,6-dimethylphenylamino)piperidine-1-carboxylate]  913 nM
25. COc1ccc(S(=O)(=O)N(c2ccccc2)C2CCN(C(=O)OC[C@H](Cc3ccccc3)N(Cc3ccccc3)Cc3ccccc3)CC2)cc1 [Compound 157, (S)-2-(dibenzylamino)-3-phenylpropyl 4-(N-phenyl-4-methoxyphenylsulfonamido)piperidine-1-carboxylate]  828 nM
26. CC(C)(C)OC(=O)N(Cc1ccccc1)[C@H](COC(=O)N1CCC(n2c(=O)[nH]c3ccccc32)CC1)Cc1ccccc1 [Compound 106, (S)-2-(benzyl(tert-butoxycarbonyl)amino)-3-phenylpropyl 4-(2-oxo-2,3-dihydro-1H-benzo[d]imidazol-1-yl)piperidine-1-carboxylate]  828 nM
27. C[C@@H](COC(=O)N1CCC(n2c(=O)n(S(=O)(=O)c3cccc4cccnc34)c3ccccc32)CC1)N(Cc1ccccc1)Cc1ccccc1 [Compound 60, (S)-2-(dibenzylamino)propyl 4-(2-oxo-3-(quinolin-8-ylsulfonyl)-2,3-dihydro-1H-benzo[d]imidazol-1-yl)piperidine-1-carboxylate]  780 nM
28. C[C@@H](COC(=O)N1CCC(N(c2ccccc2)S(=O)(=O)c2ccc(C(F)(F)F)cc2)CC1)N(Cc1ccccc1)Cc1ccccc1 [Compound 158, (S)-2-(dibenzylamino)propyl 4-(N-phenyl-4-(trifluoromethyl)phenylsulfonamido)piperidine-1-carboxylate]  355 nM
29. C[C@@H](COC(=O)N1CCC(N(c2ccccc2)S(=O)(=O)c2cccc3ccccc23)CC1)N(Cc1ccccc1)Cc1ccccc1 [Compound 161, (S)-2-(dibenzylamino)propyl 4-(N-phenyl-naphthalen-1-ylsulfonamido)piperidine-1-carboxylate]  290 nM
30. C[C@@H]1CC[C@H]2[C@@H](C)C(=O)O[C@@H]3O[C@@]4(C)CC[C@@H]1[C@]32OO4 [Artemisinine, reference compound]  28.7 nM

same assay, conditions: Plasmodium falciparum, 3D7, Erythrocyte, read-out: IC50 assessed on Plasmodium Falciparum

In order of rising IC50:
1. C[C@H]1[C@H](OC(=O)CCC(=O)O)O[C@@H]2O[C@@]3(C)CC[C@H]4[C@H](C)CC[C@@H]1[C@@]24OO3 [Artesunate, reference compound]  9.7 nM
2. CCN(CC)CCCC(C)Nc1ccnc2cc(Cl)ccc12 (stereo not drawn) [Chloroquine, reference compound]  10.3 nM
